A short description of data set [1]: As-is and tapped density of bulk drug and dried granulations (Van Kel tap density tester). The data set is classed as physicochemical. Here is the method: Form F bulk drug contained soft lumps and was sieved through an 18 mesh (1.0 mm) screen before use. A small-scale granulation process, as described in Example 1, was used for samples of 5 g of bulk drug. The liquid was pipetted in 0.1 to 1.0 mL increments until a granulation was formed, based on visual observations, followed by wet mixing for 3-5 minutes. All three runs formed wet granulations, but the run with water was much less granular than the non-aqueous runs. All of the samples were dried overnight at 40° C. for 16 hours. […] The two nonaqueous liquid runs appeared to be only ˜50% granules, and the water run was only slightly granular.
Samples of the dried granules were then hand sieved through an 18 mesh screen and the density was determined, as shown above in Table 2C. SEM's were taken of dried samples both before and after sieving was done to aid in the evaluation.
A small-scale process, as described in Example 1, was used to granulate the formulations. The ingredients (except for the lubricant), to make a 10 g lot for each run, were pre-blended for 5 minutes on a Turbula Shaker-Mixer (Willy A. Bachofen AG Maschinenfabrik, Basel, Switzerland). The blend was granulated per Example 1. The liquid was pipetted in 0.1 to 1.0 mL increments and mixed for 2.5-6 minutes until a granulation was formed. All of the samples were dried overnight at 40° C. for 16 hours. The amount of densification varied depending on the excipients used in the formulation. […] Tablets were not made from these four granulation runs because of the poor quality.
A small-scale process, as described in Example 1, was used to granulate the formulations into 10 g lots. The liquid was pipetted in 0.1 to 1.0 mL increments and mixed for 2-5 minutes until a granulation was formed. All of the samples were dried overnight at 40° C. for 16 hours in a forced hot air oven and then hand sieved through a 18 mesh (1.0 mm) screen.
A small-scale process, as described in Example 1, was used to granulate the formulations. The granulating liquid was pipetted in 0.1 to 1.0 mL increments and mixed with the 9.3 g of the dry blend for 3-6 minutes until a granulation was formed. The granulating amount, of 30, 27 and 29%, was used for the PVP granulating liquid in ethanol, water and 50:50 ethanol:water, respectively. The amount of liquid used was 2.5-3 mL, therefore the amount of solid (PVP) added in solution based on the 10 g final batch size was from about 0.25 to 0.3%. All of the samples were dried overnight at 40° C. for 16 hours and then hand sieved through a 16 mesh (1.2 mm) screen.
A small-scale process, as described in Example 1, was used to granulate the formulations to make 10 g lots. Each formulation was pre-blended for 5 minutes on a Turbula Shaker-Mixer (Willy A. Bachofen AG Maschinenfabrik, Basel, Switzerland) for 5 minutes. The blend was then granulated as described in Example 1. The liquid was pipetted in 0.1 to 1.0 mL increments and mixed for 4-8 minutes until a granulation was formed. All of the samples were dried overnight at 40° C. for 16 hours and then hand sieved through a 16 mesh (1.2mm) screen. The densities of the granulations were then compared to the bulk drug and to each other. The amount of densification varied depending on the components used in the formulation.

Data set [2] in a line: Equilibrium solubility of azithromycin forms in granulating liquids (HPLC-UV).
Procedure: Equilibrium solubility of several different forms of azithromycin, in typical liquids used in the wet granulation process, were evaluated as follows.
Excess azithromycin was added as a solid into each respective test liquid and mixed by rotation using a Labquake Rotating Mixer® at 7 revolutions per minute (RPM). Duplicate samples were run for each condition. Excess drug material was added to achieve saturation. Once saturation was achieved, the samples were rotated for 48 hours with sampling intervals at 24 and 48 hours. Azithromycin form A was also set up for a 7-day equilibrium solubility analysis to assure equilibrium beyond 48 hours. At each sampling interval, approximately half (1 mL) the sample was transferred into a polyethylene microcentrifuge tube and centrifuged at 15,000 RPM for 20 minutes using the Eppendorf Centrifuge Model # 5403. Following centrifugation, the liquid layer was pipetted and diluted with 0.04 M potassium phosphate dibasic (pH=8): acetonitrile (4:6). Dilutions were made accordingly until the peak area fell into the linear curve range of the standards (0.15 to 1.5 mgA/mL). Samples were run by HPLC (HP-1100 system, Agilent Technologies, Wilmington, Del.) with UV detection at 210 nm. The sample data was calculated by linear regression against the standard curve based on azithromycin form A.
The mark [3] stands for this setting: 24 hours, EtOH 33% in water v/v.
Where [4] appears, read: 24 hours, EtOH 67% in water v/v.
Where [5] appears, read: 48 hours, EtOH 33% in water v/v.
Setting [6] is: 48 hours, EtOH 67% in water v/v.

Take `CC[C@H]1OC(=O)[C@H](C)[C@@H](O[C@H]2C[C@@](C)(OC)[C@@H](O)[C@H](C)O2)[C@H](C)[C@@H](O[C@@H]2O[C@H](C)C[C@H](N(C)C)[C@H]2O)[C@](C)(O)C[C@@H](C)CN(C)[C@H](C)[C@@H](O)[C@]1(C)O` [form N, azithromycin]: the “As Is Density” value in data set [1] (Example 3) came to 0.450 g/cc. The “Tapped Density” value in data set [1] (Example 3) amounted to 0.600 g/cc. For the same compound, the solubility in data set [2] (setting [3]) is listed as 1.06 mgA/mL; in data set [2] (setting [4]) it was 27.33 mgA/mL; in data set [2] (24 hours, EtOH 100% neat), 228.14 mgA/mL; in data set [2] (24 hours, IPA 33% in water v/v), 9.23 mgA/mL; in data set [2] (24 hours, IPA 67% in water v/v), 113.08 mgA/mL; in data set [2] (24 hours, IPA 100% neat), 334.22 mgA/mL. Moreover, the solubility in data set [2] (24 hours, water) stood at 0.20 mgA/mL; in data set [2] (setting [5]), 1.11 mgA/mL; in data set [2] (setting [6]), 27.20 mgA/mL; in data set [2] (48 hours, EtOH 100% neat) it was 225.78 mgA/mL; in data set [2] (48 hours, IPA 33% in water v/v), 7.36 mgA/mL; in data set [2] (48 hours, IPA 67% in water v/v), 106.48 mgA/mL. The solubility in data set [2] (48 hours, IPA 100% neat) amounted to 322.91 mgA/mL; in data set [2] (48 hours, water), 0.24 mgA/mL.
With `CC[C@H]1OC(=O)[C@H](C)[C@@H](O[C@H]2C[C@@](C)(OC)[C@@H](O)[C@H](C)O2)[C@H](C)[C@@H](O[C@@H]2O[C@H](C)C[C@H](N(C)C)[C@H]2O)[C@](C)(O)C[C@@H](C)CN(C)[C@H](C)[C@@H](O)[C@]1(C)O` [form A, 9-deoxo-9a-aza-9a-methyl-9a-homoerythromycin A, reference compound], the solubility came out at 1.30 mgA/mL in data set [2] (setting [3]); 27.48 mgA/mL in data set [2] (setting [4]); 219.74 mgA/mL in data set [2] (24 hours, EtOH 100% neat); 5.50 mgA/mL in data set [2] (24 hours, IPA 33% in water v/v); 68.71 mgA/mL in data set [2] (24 hours, IPA 67% in water v/v); 291.91 mgA/mL in data set [2] (24 hours, IPA 100% neat). For the same compound, the solubility in data set [2] (24 hours, water) was found to be 0.10 mgA/mL; in data set [2] (setting [5]), 1.23 mgA/mL; in data set [2] (setting [6]), 27.25 mgA/mL; in data set [2] (48 hours, EtOH 100% neat) it was 211.59 mgA/mL; in data set [2] (48 hours, IPA 33% in water v/v), 5.25 mgA/mL; in data set [2] (48 hours, IPA 67% in water v/v), 67.70 mgA/mL. Besides, the solubility stood at 280.91 mgA/mL in data set [2] (48 hours, IPA 100% neat); 0.14 mgA/mL in data set [2] (48 hours, water); 1.27 mgA/mL in data set [2] (7 days, EtOH 33% in water v/v); 27.02 mgA/mL in data set [2] (7 days, EtOH 67% in water v/v); 214.76 mgA/mL in data set [2] (7 days, EtOH 100% neat); 5.28 mgA/mL in data set [2] (7 days, IPA 33% in water v/v). The solubility in data set [2] (7 days, IPA 67% in water v/v) is on record as 66.63 mgA/mL; in data set [2] (7 days, IPA 100% neat) it was 286.45 mgA/mL; in data set [2] (7 days, water), 0.11 mgA/mL. Moreover, the “solubility in pure water compared to all other forms” value in data set [2] (relative to the other forms) is “approximately one-half”. Also, the “solubility in the isopropanol solutions compared to all other forms” value in data set [2] (relative to the other forms) is listed as “lower solubility”.
Regarding `CCC1OC(=O)C(C)C(O[C@H]2C[C@@](C)(OC)[C@@H](O)C(C)O2)C(C)[C@@H](OC2OC(C)CC(N(C)C)[C@H]2O)[C@@](C)(O)C[C@@H](C)CN(C)[C@H](C)[C@@H](O)[C@]1(C)O` (stereo partly drawn) [form J, azithromycin monohydrate hemi-n-propanol solvate], the “As Is Density” value in data set [1] (Example 3) was found to be 0.377 g/cc. For the same compound, the “Tapped Density” value in data set [1] (Example 3) is listed as 0.649 g/cc. In addition, the solubility stood at 0.95 mgA/mL in data set [2] (setting [3]); 27.15 mgA/mL in data set [2] (setting [4]); 224.77 mgA/mL in data set [2] (24 hours, EtOH 100% neat); 9.81 mgA/mL in data set [2] (24 hours, IPA 33% in water v/v); 113.05 mgA/mL in data set [2] (24 hours, IPA 67% in water v/v); 315.94 mgA/mL in data set [2] (24 hours, IPA 100% neat). Further, the solubility in data set [2] (24 hours, water) worked out at 0.18 mgA/mL; in data set [2] (setting [5]) it was 0.99 mgA/mL; in data set [2] (setting [6]), 26.30 mgA/mL; in data set [2] (48 hours, EtOH 100% neat) it was 208.99 mgA/mL; in data set [2] (48 hours, IPA 33% in water v/v), 9.40 mgA/mL; in data set [2] (48 hours, IPA 67% in water v/v), 106.51 mgA/mL. The solubility in data set [2] (48 hours, IPA 100% neat) is on record as 295.88 mgA/mL; in data set [2] (48 hours, water), 0.22 mgA/mL.
As for `CC[C@H]1OC(=O)[C@H](C)[C@@H](O[C@H]2C[C@@](C)(OC)[C@@H](O)[C@H](C)O2)[C@H](C)[C@@H](O[C@@H]2O[C@H](C)C[C@H](N(C)C)[C@H]2O)[C@](C)(O)C[C@@H](C)CN(C)[C@H](C)[C@@H](O)[C@]1(C)O` [form G, azithromycin sesquihydrate], in data set [1] (Example 3, sesquihydrate), the “As Is Density” value is reported as 0.290 g/cc and the “Tapped Density” value is on record as 0.450 g/cc.
On to `CCC1OC(=O)C(C)C(O[C@H]2C[C@@](C)(OC)[C@@H](O)C(C)O2)C(C)[C@@H](OC2OC(C)CC(N(C)C)[C@H]2O)[C@@](C)(O)C[C@@H](C)CN(C)[C@H](C)[C@@H](O)[C@]1(C)O` (stereo partly drawn) [form M, azithromycin monohydrate hemi-isopropanol solvate], for which the “As Is Density” value in data set [1] (Example 3) is on record as 0.391 g/cc. For the same compound, the “Tapped Density” value in data set [1] (Example 3) was determined as 0.514 g/cc. In addition, the solubility in data set [2] (setting [3]) is 0.97 mgA/mL; in data set [2] (setting [4]) it was 25.86 mgA/mL; in data set [2] (24 hours, EtOH 100% neat), 211.38 mgA/mL; in data set [2] (24 hours, IPA 33% in water v/v), 8.56 mgA/mL; in data set [2] (24 hours, IPA 67% in water v/v), 110.67 mgA/mL; in data set [2] (24 hours, IPA 100% neat), 333.39 mgA/mL. For the same compound, the solubility was 0.22 mgA/mL in data set [2] (24 hours, water); 1.10 mgA/mL in data set [2] (setting [5]); 27.00 mgA/mL in data set [2] (setting [6]); 222.38 mgA/mL in data set [2] (48 hours, EtOH 100% neat); 8.92 mgA/mL in data set [2] (48 hours, IPA 33% in water v/v); 82.95 mgA/mL in data set [2] (48 hours, IPA 67% in water v/v). The solubility in data set [2] (48 hours, IPA 100% neat) is 353.19 mgA/mL; in data set [2] (48 hours, water) it was 0.21 mgA/mL; in data set [2] (72 hours, IPA 67% in water v/v) it was 71.35 mgA/mL; in data set [2] (72 hours, IPA 100% neat), 322.55 mgA/mL.
Turning to `CCC1OC(=O)C(C)C(O[C@H]2C[C@@](C)(OC)[C@@H](O)C(C)O2)C(C)[C@@H](OC2OC(C)CC(N(C)C)[C@H]2O)[C@@](C)(O)C[C@@H](C)CN(C)[C@H](C)[C@@H](O)[C@]1(C)O` (stereo partly drawn) [form F, azithromycin monohydrate hemi-ethanol solvate], the “As is Density” value in data set [1] (Example 2, form F, Table 2A) is on record as 0.290 g/cc; in data set [1] (Example 2, form F, Table 2C), 0.290 g/cc. The “Tapped Density” value in data set [1] (Example 2, form F, Table 2A, 2000 taps) is reported as 0.439 g/cc; in data set [1] (Example 2, form F, Table 2C), 0.439 g/cc; in data set [1] (Example 3), 0.439 g/cc; in data set [1] (Example 6, form F), 0.439 g/cc; in data set [1] (Example 7, form F) it was 0.439 g/cc. Besides, the “As Is Density” value is listed as 0.290 g/cc in data set [1] (Example 3); 0.290 g/cc in data set [1] (Example 6, form F); 0.290 g/cc in data set [1] (Example 7, form F). In addition, the solubility in data set [2] (setting [3]) is 0.98 mgA/mL; in data set [2] (setting [4]), 27.86 mgA/mL; in data set [2] (24 hours, EtOH 100% neat), 228.34 mgA/mL; in data set [2] (24 hours, IPA 33% in water v/v), 10.04 mgA/mL; in data set [2] (24 hours, IPA 67% in water v/v) it was 94.09 mgA/mL; in data set [2] (24 hours, IPA 100% neat), 367.02 mgA/mL. Moreover, the solubility in data set [2] (24 hours, water) came to 0.19 mgA/mL; in data set [2] (setting [5]), 1.06 mgA/mL; in data set [2] (setting [6]) it was 27.56 mgA/mL; in data set [2] (48 hours, EtOH 100% neat) it was 229.87 mgA/mL; in data set [2] (48 hours, IPA 33% in water v/v), 9.41 mgA/mL; in data set [2] (48 hours, IPA 67% in water v/v), 79.90 mgA/mL. The solubility in data set [2] (48 hours, IPA 100% neat) is recorded as 362.64 mgA/mL; in data set [2] (48 hours, water), 0.21 mgA/mL.

Source of the values: US20030190365A1, “Methods for wet granulating azithromycin” (Pfizer Inc., priority 2001, published 2003).
